Test results reported in patent US8895610B1, “Platinum (IV) compounds targeting zinc finger domains” (priority 2007, dated 2014).
“And” between values parts separate entries of the source, which are not always exact repeats. Equal values may be shown once.

Legend:
p24 Gag protein = assay: Western blot of p24 Gag protein, pNL4-3-transfected HeLa cells and viral progeny; format: cell-based, HIV-1; conditions: increasing concentration
From the text: In vitro, this process occurs in the presence of nucleic acids and a cofactor (Campbell, 1999; Campbell, 2001). Immature particles fail to consolidate an outer membrane, emphasizing the critical role of Gag proteins in the assembly process (Didierlaurent, 2008). As virions bud from the host membrane, viral protease cleaves p55 Gag into its final mature components: matrix (p17), capsid (p24), nucleocapsid (p7) and p6, each designated by its apparent molecular weight. […] Effects may extend across the Gag polyprotein and its components, further compounding activities.

[1] = system: Petaluma strain of FIV (proviral DNA in PBMC); assay: Proviral load in peripheral blood mononuclear cells by TM-PCR; format: in vivo, domestic cat; conditions: for Proviral Load in PBMC: cats BR, CF
From the text: (§1) Currently available antiretrovirals require daily dosing, often in combination therapy. Two 12^+-year old specific-pathogen-free domestic female cats infected >5 years with the Petaluma strain of FIV were used in this study. The animals were housed individually in a climatized animal facility in accordance with standards, had ad libitum access to fresh water and food, and were sedated with Tiletamine/Zolazepam intramuscularly prior to any procedure. The cats weighed from 3-5 kg each. Three weeks before initiation of the treatment and at scheduled times, samples were collected for hematological and virological analyses. The cats received 9 intravenous doses of 3 mg/kg FX101 over 4.5 weeks (2× weekly).
Genomic DNA was extracted from the PBMC using the QIAamp DNA Blood Mini kit (QIAGEN). Proviral DNA was quantified from 0.4 ug genomic DNA by TM-PCR under the same conditions used for cDNA amplification except that the reaction mixture volume was 25 ul (n=3). The sensitivity of the assay was 100 copies/ug genomic DNA (Pistello, 2005). Proviral load varied over the course of treatment, but measured much lower than baseline pretreatment measures both 6 and 9 months later (27 and 38 weeks, respectively). This measure reflects viral integration into the host PBMCs, primed for production of viral particles with commencement of transcription. […] This is indicative of viral clearance and immune recovery, including apoptotic elimination of virally-infected cells. Viral reservoirs, such as those of macrophages and monocytes, have prevented eradication of lentiviruses (Nicastri, 2008).
0.1664 g FX101 was dissolved into 30 mL 15% DMSO/PBS and stirred overnight. This solution was sterile-filtered using a 20-mL syringe fitted with a […] Sarstedt filter. Each dose was administered under anesthesia, a 1.5 mL venous injection using a 2.5 mL syringe fitted with a 22G 1¼-in. needle (latex free). Feline BR weighed 3.2 kg at the start of the experiment and CF weighed 2.8 kg. Each received 8.3 mg drug with each dose, so dosages were 2.6 mg/kg for BR and 3.0 mg/kg for CF.

[2] = system: peripheral CD4+ and CD8+ T-lymphocytes; assay: Circulating CD4+ and CD8+ T-lymphocytes by flow cytometry; format: in vivo, domestic cat
Protocol: Numbers of peripheral CD4^+ and CD8^+ T-lymphocytes in the blood were determined by labeling with mouse monoclonal antibodies to feline CD4^+ (FE1.7B12) and feline CD8^+ (FE1.10E9), obtained from Peter F. Moore, University of California, Davis, Calif. Bound primary antibodies were detected using FITC-conjugated anti-mouse IgG1 (Space-Serotec, Milan, Italy), and the samples were analyzed on a FACScan flow cytometer (Becton Dickinson, San Jose, Calif.). Both a negative (no drug) and positive (integrase inhibitor cocktail) control are included with data from two HK inhibitor-tested felines.

[3] = Blood brain barrier penetration: CSF platinum by graphite furnace atomic absorption; format: in vivo, cat; conditions: final i.v. treatment, both cats
Protocol: Cerebrospinal fluid (CSF) from cats BR and CF of Example 6 were collected under sedation following humane animal practices. CSF (0.5-1 ml) samples were collected within 15 minutes of FX101 peripheral intravenous (IV) injection to examine for drug penetration into the CNS. Importantly, this analysis was conducted upon the final IV drug treatment, which would most likely evidence resistances to CNS uptake as experienced by other CNS-penetrable drugs. Instead, CSF concentrations (analyzed by graphite furnace atomic absorption spectrometry for this inorganic complex as illustrated for cat “BG”) were equivalent to blood serum concentrations of 5 micrograms/mL in both cats, supporting a continuing unimpeded penetration into the vital CNS compartment through the blood brain barrier.

FIV Petaluma = assay: p25 antigen evaluation of antiviral activity in MBM cells; format: cell-based, feline; conditions: for p25 Viral Antigen (OD), average / p25 Viral Antigen (OD), individual wells: 7 days post infection, K+ = 1.195, K− = 0.08, listed as 4
Protocol: Antiviral activity in MBM was determined by inoculating 200 Tissue Culture Infectious Doses 50% FIV Petaluma (Talbott, 1989) in 100 μL RPMI 1640 medium into quadruplicate wells of 96-well microplates containing 2×10^5 cells in 100 μL medium. The cultures were monitored by measuring FIV p25 capsid protein (Lombardi, 1994) release in the supernatants after 7 days of incubation at 37° C. in 5% CO2 (Table 12). Half the media (without drug) was replaced on days 2 and 6 after infection and initial drug exposure. […] Drugs are identified as: CPA-7 (#1); NAD (#2); cisplatin (#3) and FX101 (#4). […]. […] A minimum of 50% inhibition in vitro is required to offset viral infectivity and replication in vivo.

[4] = Clinical observations, clinical chemistry, CBC and urinalysis in FIV cat studies; format: in vivo; conditions: 9 intravenous doses of 3 mg/kg over 4.5 weeks; two FIV-infected cats
From the text: as §1

F2 zinc finger peptide = F2 zinc finger peptide (Human immunodeficiency virus type 1 group M subtype B, UniProt P12493)
Protocol: Solutions of F2 zinc finger peptide in phosphate-buffered saline without calcium or magnesium (see Example 1) alone or mixed with zinc and/or platinum compounds were analyzed by MALDI-TOF (matrix-assisted laser desorption/time-of-flight) MS (mass spectrometry). Briefly, the samples comprised 1:1 ratios of F2 peptide with metals in phosphate buffered saline without calcium or magnesium at 2×10 moles/liter concentrations. Additionally, samples containing both Zn(II) and Pt(IV) metals with F2 peptide in a 1:1:1 ratio were analyzed, as were various Pt(IV) and Pt(II) compounds mixed with F2 peptide solutions. Samples were considered to be at equilibrium after 12 hours stored at 4° C. Volumes of 0.5-1.0 microliters for each sample were individually spotted with or without dilution at 1:10, 1:100 or 1:1000 (˜165-193 pmole/microliter) in DHB matrix (Laser Biolabs, France). […]
The main group of peaks include at least two overlapping peaks characteristic of cysteines (see note above) with neutral mass within 2451.82-2457.82 Da, singly charged ions at m/z 2452.82-2458.82 Da. […] While MALDI-TOF MS is not quantitative, relative peak heights are proportional to relative amounts of species.

[5] = Oct. 4, 2007 (+2 wk) post treatment

Which results are given for `[NH2][Pt]([NH2])([Cl])([Cl])([Cl])[N+](=O)[O-]` [FX101, nitrotrichlorodiamminoPt(IV)]?
mature p24 content in host cells and viral progeny (Western blot) (p24 Gag protein): absence of mature p24; PBMC proviral load immediately following final dosing (in words) ([1]; 14 days after the final dosing, both animals): short increase; Proviral Load in PBMC ([1]; Aug. 23, 2007 start of treatment period, blood collected prior to dosing): 4472 proviral DNA copies/ug genomic DNA and 6867 proviral DNA copies/ug genomic DNA; Proviral Load in PBMC ([1]; Aug. 30, 2007 treatment period): 5803 proviral DNA copies/ug genomic DNA and 6476 proviral DNA copies/ug genomic DNA; Proviral Load in PBMC ([1]; Jun. 12, 2008 (+38 wk) post treatment): 1747 proviral DNA copies/ug genomic DNA and 1350 proviral DNA copies/ug genomic DNA; Proviral Load in PBMC ([1]; Mar. 27, 2008 (+27 wk) post treatment): 1250 proviral DNA copies/ug genomic DNA and 1000 proviral DNA copies/ug genomic DNA; Proviral Load in PBMC [1, 5]: 14500 proviral DNA copies/ug genomic DNA and 14724 proviral DNA copies/ug genomic DNA; Proviral Load in PBMC ([1]; Oct. 20, 2007 (+4 wk) post treatment): 4211 proviral DNA copies/ug genomic DNA and 2790 proviral DNA copies/ug genomic DNA; Proviral Load in PBMC ([1]; Sep. 20, 2007 treatment period): 4152 proviral DNA copies/ug genomic DNA and 4660 proviral DNA copies/ug genomic DNA; proviral loads over subsequent months (in words) ([1]; months after treatment, vs pretreatment baseline): declined over subsequent months, even below pretreatment baseline measures; Relative CD4+/CD8+ T-Lymphocyte Counts ([2]; Aug. 2, 2007 pretreatment period): 1.1 and 1.3; Relative CD4+/CD8+ T-Lymphocyte Counts ([2]; Aug. 23, 2007 start of treatment period): 1.2; Relative CD4+/CD8+ T-Lymphocyte Counts ([2]; Aug. 30, 2007 treatment period): 1.5 and 1.3; Relative CD4+/CD8+ T-Lymphocyte Counts ([2]; Dec. 1, 2005 pretreatment period): 1.5 and 2.0; Relative CD4+/CD8+ T-Lymphocyte Counts ([2]; Feb. 1, 2006 pretreatment period): 0.82 and 1.1; Relative CD4+/CD8+ T-Lymphocyte Counts ([2]; Jan. 1, 2006 pretreatment period): 1.6 and 0.92; Relative CD4+/CD8+ T-Lymphocyte Counts ([2]; Mar. 1, 2006 pretreatment period): 0.84 and 1.2; Relative CD4+/CD8+ T-Lymphocyte Counts ([2]; May 8, 2008 (+33 wk) post treatment): 1.8 and 1.6; Relative CD4+/CD8+ T-Lymphocyte Counts ([2]; Nov. 1, 2005 pretreatment period): 0.86 and 0.85; Relative CD4+/CD8+ T-Lymphocyte Counts [2, 5]: 1.9 and 1.4; Relative CD4+/CD8+ T-Lymphocyte Counts ([2]; Sep. 4, 2007 treatment period): 1.5 and 1.6; final CD4+/CD8+ ratios compared with controls ([2]; conclusion of the study, both tested felines): remained higher; blood serum concentrations [3]: 5 micrograms/mL; CSF concentrations ([3]; within 15 minutes of peripheral i.v. injection): 5 micrograms/mL; inhibition (elimination of all measures of virus) by day 7 (FIV Petaluma; 7 days, concentrations used 5 and 20 μM, listed as #4): 100%; p25 Viral Antigen (OD), average (FIV Petaluma; conc 5 μM): 0 OD; p25 Viral Antigen (OD), individual wells (FIV Petaluma; conc 5 μM): 0 OD; p25 Viral Antigen (OD), average (FIV Petaluma; conc 20 μM): 0 OD; p25 Viral Antigen (OD), individual wells (FIV Petaluma; conc 20 μM): 0 OD; local reactions or adverse clinical indicators [4]: No local reactions or adverse clinical indicators; competition with zinc for the F2 zinc finger binding domain (F2 zinc finger peptide; 1:1:1 F2:FX:Zn): thermodynamic competition of FX over zinc; coordination with F2 peptide (set of peaks at m/z 2452.82-2458.82 Da) (F2 zinc finger peptide; 1:1 with F2 peptide in PBS, 12 hours at 4° C.): unique to the F2 peptide+FX spectral complex
